Data taken from paper PMC5218480 (PLoS ONE, 2017).

System: MV-4-11 cells
Experiment: Gene expression microarray analysis (Affymetrix PrimeView) and GSEA
Format: cell-based, human
Set-up: RFU PODN (11730768_x_at) / Fold change /veh PODN (11730768_x_at) / RFU LINC00158 (11744669_a_at) / Fold change /veh LINC00158 (11744669_a_at) / RFU DUSP10 (11751237_a_at) / Fold change /veh DUSP10 (11751237_a_at) / RFU ID3 (11757404_x_at) / Fold change /veh ID3 (11757404_x_at) / RFU PLEKHG5 (11737974_s_at) / Fold change /veh PLEKHG5 (11737974_s_at) / RFU LRRC4B (11730491_at) / Fold change /veh LRRC4B (11730491_at) / RFU GIMAP4 (11747438_a_at) / Fold change /veh GIMAP4 (11747438_a_at) / RFU KRT8 (11758183_x_at) / Fold change /veh KRT8 (11758183_x_at) / RFU CNN1 (11734310_a_at) / Fold change /veh CNN1 (11734310_a_at) / RFU VPS37D (11726825_at) / Fold change /veh VPS37D (11726825_at) / RFU C10orf10 (11716522_x_at) / Fold change /veh C10orf10 (11716522_x_at) / RFU KIR2DL2 /// KIR2DL4 /// KIR2DL5A /// KIR2DL5B /// KIR2DS1 /// KIR2DS2 /// KIR2DS3 /// KIR2DS4 /// KIR3DL3 /// KIR3DL3 /// KIR3DS1 (11738374_at) / Fold change /veh KIR2DL2 /// KIR2DL4 /// KIR2DL5A /// KIR2DL5B /// KIR2DS1 /// KIR2DS2 /// KIR2DS3 /// KIR2DS4 /// KIR3DL3 /// KIR3DL3 /// KIR3DS1 (11738374_at) / RFU C1QL1 (11718748_at) / Fold change /veh C1QL1 (11718748_at) / RFU TMPRSS4 (11747572_a_at) / Fold change /veh TMPRSS4 (11747572_a_at) / RFU HAMP (11756126_x_at) / Fold change /veh HAMP (11756126_x_at) / RFU RNFT2 (11725882_a_at) / Fold change /veh RNFT2 (11725882_a_at) / RFU NR4A2 (11747474_a_at) / Fold change /veh NR4A2 (11747474_a_at) / RFU ABCC12 (11746883_a_at) / Fold change /veh ABCC12 (11746883_a_at) / RFU TMEM136 (11760407_x_at) / Fold change /veh TMEM136 (11760407_x_at) / RFU CLDN22 /// WWC2 (11732394_at) / Fold change /veh CLDN22 /// WWC2 (11732394_at) / RFU HLA-DPB1 (11760878_x_at) / Fold change /veh HLA-DPB1 (11760878_x_at) / RFU SPINT1 (11716480_a_at) / Fold change /veh SPINT1 (11716480_a_at) / RFU GAP43 (11754022_s_at) / Fold change /veh GAP43 (11754022_s_at) / RFU A4GNT (11735810_at) / Fold change /veh A4GNT (11735810_at) / RFU PRB3 (11715151_x_at) / Fold change /veh PRB3 (11715151_x_at) / RFU TUBB4B (11761932_at) / Fold change /veh TUBB4B (11761932_at) / RFU CAPN14 (11732068_a_at) / Fold change /veh CAPN14 (11732068_a_at) / RFU TMCC2 (11721928_a_at) / Fold change /veh TMCC2 (11721928_a_at) / RFU IRGQ (11745062_a_at) / Fold change /veh IRGQ (11745062_a_at) / RFU FAM174B (11720279_a_at) / Fold change /veh FAM174B (11720279_a_at) / RFU TMPRSS4 (11748680_a_at) / Fold change /veh TMPRSS4 (11748680_a_at) / RFU FAM212B (11763350_a_at) / Fold change /veh FAM212B (11763350_a_at) / RFU PLEKHG5 (11743358_a_at) / Fold change /veh PLEKHG5 (11743358_a_at) / RFU ZSCAN30 (11745921_a_at) / Fold change /veh ZSCAN30 (11745921_a_at) / RFU CMKLR1 (11741424_a_at) / Fold change /veh CMKLR1 (11741424_a_at) / RFU LOC101060620 /// MAPK8IP1 (11723275_at) / Fold change /veh LOC101060620 /// MAPK8IP1 (11723275_at) / RFU SPTSSB (11747773_x_at) / Fold change /veh SPTSSB (11747773_x_at) / RFU PRSS12 (11739890_at) / Fold change /veh PRSS12 (11739890_at) / RFU BIN1 (11741810_x_at) / Fold change /veh BIN1 (11741810_x_at) / RFU WNT11 (11732464_a_at) / Fold change /veh WNT11 (11732464_a_at) / RFU C10orf10 (11716521_a_at) / Fold change /veh C10orf10 (11716521_a_at) / RFU C5orf56 (11738089_at) / Fold change /veh C5orf56 (11738089_at) / RFU CYB561 (11721691_x_at) / Fold change /veh CYB561 (11721691_x_at) / RFU ANKRD19P (11752326_a_at) / Fold change /veh ANKRD19P (11752326_a_at) / RFU OR2T12 /// OR2T33 /// OR2T8 (11738714_s_at) / Fold change /veh OR2T12 /// OR2T33 /// OR2T8 (11738714_s_at) / RFU VCAN (11748164_a_at) / Fold change /veh VCAN (11748164_a_at) / RFU JSRP1 (11732532_at) / Fold change /veh JSRP1 (11732532_at) / RFU KRTAP10-11 (11738290_x_at) / Fold change /veh KRTAP10-11 (11738290_x_at) / RFU MYO3A (11730013_a_at) / Fold change /veh MYO3A (11730013_a_at) / RFU EBF3 (11725865_a_at) / Fold change /veh EBF3 (11725865_a_at) / RFU CAMK2N1 (11719241_x_at) / Fold change /veh CAMK2N1 (11719241_x_at) / RFU C5orf56 (11738088_a_at) / Fold change /veh C5orf56 (11738088_a_at) / RFU OLFML3 (11715873_a_at) / Fold change /veh OLFML3 (11715873_a_at) / RFU LOC100653217 /// NTM (11731650_a_at) / Fold change /veh LOC100653217 /// NTM (11731650_a_at) / RFU MAPK11 (11762145_a_at) / Fold change /veh MAPK11 (11762145_a_at) / RFU FIZ1 (11724087_x_at) / Fold change /veh FIZ1 (11724087_x_at) / RFU OASL (11726364_x_at) / Fold change /veh OASL (11726364_x_at) / RFU SOX15 (11748057_x_at) / Fold change /veh SOX15 (11748057_x_at) / RFU CD79A (11719716_a_at) / Fold change /veh CD79A (11719716_a_at) / RFU HIST1H1D (11736915_at) / Fold change /veh HIST1H1D (11736915_at) / RFU CASKIN2 (11723855_a_at) / Fold change /veh CASKIN2 (11723855_a_at) / RFU LOC730098 (11760151_x_at) / Fold change /veh LOC730098 (11760151_x_at) / RFU OR4N2 (11742367_at) / Fold change /veh OR4N2 (11742367_at) / RFU PRRT2 (11749266_a_at) / Fold change /veh PRRT2 (11749266_a_at) / RFU SNX32 (11753110_a_at) / Fold change /veh SNX32 (11753110_a_at) / RFU CDHR5 (11726645_a_at) / Fold change /veh CDHR5 (11726645_a_at) / RFU RCAN1 (11760418_a_at) / Fold change /veh RCAN1 (11760418_a_at) / RFU FAM167A (11723789_a_at) / Fold change /veh FAM167A (11723789_a_at) / RFU FAM26E (11764081_at) / Fold change /veh FAM26E (11764081_at) / RFU ISYNA1 (11749810_s_at) / Fold change /veh ISYNA1 (11749810_s_at) / RFU ACY1 (11761880_at) / Fold change /veh ACY1 (11761880_at) / RFU 11764098_at / Fold change /veh 11764098_at / RFU SAMD14 (11745864_x_at) / Fold change /veh SAMD14 (11745864_x_at) / RFU NPB (11741838_a_at) / Fold change /veh NPB (11741838_a_at) / RFU TMPRSS6 (11731388_a_at) / Fold change /veh TMPRSS6 (11731388_a_at) / RFU KRTAP10-2 (11738614_at) / Fold change /veh KRTAP10-2 (11738614_at) / RFU ARHGAP8 /// PRR5-ARHGAP8 (11727945_x_at) / Fold change /veh ARHGAP8 /// PRR5-ARHGAP8 (11727945_x_at) / RFU KRTAP5-7 /// NADSYN1 (11734609_at) / Fold change /veh KRTAP5-7 /// NADSYN1 (11734609_at) / RFU RASL12 (11751679_a_at) / Fold change /veh RASL12 (11751679_a_at) / RFU CDKN2B (11736163_a_at) / Fold change /veh CDKN2B (11736163_a_at) / RFU PRF1 (11729649_at) / Fold change /veh PRF1 (11729649_at) / RFU, ZNF638 /// ZNF638-IT1 / Fold change vs veh, ZNF638 /// ZNF638-IT1 / RFU, PANK3 / Fold change vs veh, PANK3 / RFU, SH3YL1 / Fold change vs veh, SH3YL1 / RFU, ZEB2 / Fold change vs veh, ZEB2 / RFU, NRIP1 / Fold change vs veh, NRIP1 / RFU, PTTG1IP / Fold change vs veh, PTTG1IP / RFU, CAPN2 / Fold change vs veh, CAPN2 / RFU, MED14 / Fold change vs veh, MED14 / RFU, SNORA58 / Fold change vs veh, SNORA58 / RFU, C1orf63 / Fold change vs veh, C1orf63 / RFU, LRRFIP1 / Fold change vs veh, LRRFIP1 / RFU, NDUFAF7 / Fold change vs veh, NDUFAF7 / RFU, SLC12A2 / Fold change vs veh, SLC12A2 / RFU, IBTK / Fold change vs veh, IBTK / RFU, ESF1 / Fold change vs veh, ESF1 / Fold change vs veh, TMEM50B / RFU, TAOK1 / Fold change vs veh, TAOK1 / RFU, ACBD3 / Fold change vs veh, ACBD3 / RFU, TMA16 / Fold change vs veh, TMA16 / RFU, RWDD3 / Fold change vs veh, RWDD3 / RFU, BCAT1 / Fold change vs veh, BCAT1 / RFU, EDEM3 / Fold change vs veh, EDEM3 / RFU, TMEM33 / Fold change vs veh, TMEM33 / RFU, WDR75 / Fold change vs veh, WDR75 / RFU, AHCTF1 / Fold change vs veh, AHCTF1 / RFU, TFRC / Fold change vs veh, TFRC / RFU, ZDHHC17 / Fold change vs veh, ZDHHC17 / RFU, NOM1 / Fold change vs veh, NOM1 / RFU, ARL8B / Fold change vs veh, ARL8B / RFU, ZBTB11 / Fold change vs veh, ZBTB11 / RFU, TAMM41 / Fold change vs veh, TAMM41 / RFU, KIAA1704 /// LOC100996395 / Fold change vs veh, KIAA1704 /// LOC100996395 / RFU, ING1 / Fold change vs veh, ING1 / RFU, TRMT61B / Fold change vs veh, TRMT61B / RFU, FUBP3 / Fold change vs veh, FUBP3 / RFU, TP53 / Fold change vs veh, TP53 / RFU, TNKS2 / Fold change vs veh, TNKS2 / RFU, ZFP14 / Fold change vs veh, ZFP14 / RFU, ACTR2 / Fold change vs veh, ACTR2 / RFU, PPP3R1 / Fold change vs veh, PPP3R1 / RFU, PIK3R1 / Fold change vs veh, PIK3R1 / RFU, HNRNPA1 / Fold change vs veh, HNRNPA1 / RFU, RNF170 / Fold change vs veh, RNF170 / RFU, ZNF28 / Fold change vs veh, ZNF28 / RFU, RNGTT / Fold change vs veh, RNGTT / RFU, OGT / Fold change vs veh, OGT / RFU, BRD1 / Fold change vs veh, BRD1 / RFU, MARS / Fold change vs veh, MARS / RFU, ZNF655 / Fold change vs veh, ZNF655 / RFU, FAHD1 / Fold change vs veh, FAHD1 / RFU, BDP1 / Fold change vs veh, BDP1 / RFU, LRRCC1 / Fold change vs veh, LRRCC1 / RFU, ARID1A / Fold change vs veh, ARID1A / RFU, ZNF146 / Fold change vs veh, ZNF146 / RFU, ZNF330 / Fold change vs veh, ZNF330 / RFU, GPN3 / Fold change vs veh, GPN3 / RFU, C9orf123 / Fold change vs veh, C9orf123 / RFU, N4BP2L2 / Fold change vs veh, N4BP2L2 / RFU, ARFIP1 / Fold change vs veh, ARFIP1 / RFU, FAM179B / Fold change vs veh, FAM179B / RFU, BCL10 / Fold change vs veh, BCL10 / RFU, UHRF1BP1L / Fold change vs veh, UHRF1BP1L / RFU, BET1 / Fold change vs veh, BET1 / RFU, CNOT2 / Fold change vs veh, CNOT2 / RFU, ZNF268 / Fold change vs veh, ZNF268 / Fold change vs veh, ZNF507 / RFU, DGCR2 / Fold change vs veh, DGCR2 / RFU, WDSUB1 / Fold change vs veh, WDSUB1 / Fold change vs veh, HSP90B1 /// MIR3652 / RFU, ADSS / Fold change vs veh, ADSS / RFU, GK / Fold change vs veh, GK / RFU, ZNF148 / Fold change vs veh, ZNF148 / RFU, TAF9 / Fold change vs veh, TAF9 / RFU, SLC1A5 / Fold change vs veh, SLC1A5 / RFU, SLMO2 / Fold change vs veh, SLMO2 / RFU, ABCC4 / Fold change vs veh, ABCC4 / RFU, LOC101060439 /// RAP1B / Fold change vs veh, LOC101060439 /// RAP1B / RFU, RFX7 / Fold change vs veh, RFX7 / RFU, GTPBP10 / Fold change vs veh, GTPBP10 / RFU, CNEP1R1 / Fold change vs veh, CNEP1R1 / RFU, BIVM-ERCC5 /// ERCC5 / Fold change vs veh, BIVM-ERCC5 /// ERCC5 / RFU, ILF3 / Fold change vs veh, ILF3 / RFU 11762660_at / Fold change /veh 11762660_at / RFU VCAN (11757783_s_at) / Fold change /veh VCAN (11757783_s_at) / RFU DDX43 (11728927_at) / Fold change /veh DDX43 (11728927_at) / RFU KRT8 (11758188_x_at) / Fold change /veh KRT8 (11758188_x_at) / RFU NKD1 (11759106_at) / Fold change /veh NKD1 (11759106_at) / RFU SRD5A1 (11742802_a_at) / Fold change /veh SRD5A1 (11742802_a_at) / RFU TPSAB1 /// TPSB2 (11721975_s_at) / Fold change /veh TPSAB1 /// TPSB2 (11721975_s_at) / RFU GSTM3 (11746129_a_at) / Fold change /veh GSTM3 (11746129_a_at) / RFU IL23R (11737362_x_at) / Fold change /veh IL23R (11737362_x_at) / RFU TMEM51 (11727254_a_at) / Fold change /veh TMEM51 (11727254_a_at) / RFU PIWIL2 (11732686_x_at) / Fold change /veh PIWIL2 (11732686_x_at) / RFU ORM1 (11744905_x_at) / Fold change /veh ORM1 (11744905_x_at) / RFU CCDC152 (11743942_at) / Fold change /veh CCDC152 (11743942_at) / RFU ECM1 (11717891_a_at) / Fold change /veh ECM1 (11717891_a_at) / RFU IL23R (11748794_a_at) / Fold change /veh IL23R (11748794_a_at) / RFU TNFAIP8L3 (11732012_x_at) / Fold change /veh TNFAIP8L3 (11732012_x_at) / RFU MBOAT4 (11741988_at) / Fold change /veh MBOAT4 (11741988_at) / RFU 11764193_at / Fold change /veh 11764193_at / RFU TMEM53 (11763286_at) / Fold change /veh TMEM53 (11763286_at) / RFU MAGEB2 (11727129_at) / Fold change /veh MAGEB2 (11727129_at) / RFU TMEM200A (11744735_a_at) / Fold change /veh TMEM200A (11744735_a_at) / RFU CCDC152 (11751479_a_at) / Fold change /veh CCDC152 (11751479_a_at) / RFU FAM211A (11726209_a_at) / Fold change /veh FAM211A (11726209_a_at) / RFU RGS16 (11746705_a_at) / Fold change /veh RGS16 (11746705_a_at) / RFU VCAN (11755009_s_at) / Fold change /veh VCAN (11755009_s_at) / RFU RHOB (11743442_s_at) / Fold change /veh RHOB (11743442_s_at) / RFU RGS16 (11720943_a_at) / Fold change /veh RGS16 (11720943_a_at) / RFU RGS16 (11720944_at) / Fold change /veh RGS16 (11720944_at) / RFU, VPS4B / Fold change vs veh, VPS4B / RFU, CREB1 / Fold change vs veh, CREB1 / RFU, DNAJC13 / Fold change vs veh, DNAJC13 / RFU, GNAQ / Fold change vs veh, GNAQ / RFU, CDK5R1 / Fold change vs veh, CDK5R1 / RFU, ZRANB3 / Fold change vs veh, ZRANB3 / RFU, CUL4A / Fold change vs veh, CUL4A / RFU, CCNY / Fold change vs veh, CCNY / RFU, UFL1 / Fold change vs veh, UFL1 / RFU, COG3 / Fold change vs veh, COG3 / RFU, DIAPH2 / Fold change vs veh, DIAPH2 / RFU, SKA2 / Fold change vs veh, SKA2 / RFU, AFF3 / Fold change vs veh, AFF3 / RFU, LMF1 / Fold change vs veh, LMF1 / RFU, IPO11 / Fold change vs veh, IPO11 / RFU, DFFB / Fold change vs veh, DFFB / RFU, FOXP1 / Fold change vs veh, FOXP1 / RFU, CARD8 / Fold change vs veh, CARD8 / RFU, STRN3 / Fold change vs veh, STRN3 / RFU, ADK / Fold change vs veh, ADK / RFU, RASSF2 / Fold change vs veh, RASSF2 / RFU, WIPF1 / Fold change vs veh, WIPF1 / RFU, LARP1B / Fold change vs veh, LARP1B / RFU, RASA1 / Fold change vs veh, RASA1 / RFU, RB1 / Fold change vs veh, RB1 / RFU, PPFIA1 / Fold change vs veh, PPFIA1 / RFU, MAT2A / Fold change vs veh, MAT2A / RFU, CCT5 / Fold change vs veh, CCT5 / RFU, WDR92 / Fold change vs veh, WDR92 / RFU, CUX1 / Fold change vs veh, CUX1 / RFU, TTC7A / Fold change vs veh, TTC7A / RFU, TMEM135 / Fold change vs veh, TMEM135 / RFU, DEPTOR / Fold change vs veh, DEPTOR / RFU, CPM / Fold change vs veh, CPM / RFU, DNAJB6 / Fold change vs veh, DNAJB6 / RFU, CACNA2D3 / Fold change vs veh, CACNA2D3 / RFU, DTX4 / Fold change vs veh, DTX4 / RFU, TFCP2 / Fold change vs veh, TFCP2 / RFU, GMCL1 /// GMCL1P1 / Fold change vs veh, GMCL1 /// GMCL1P1 / RFU, AEBP2 / Fold change vs veh, AEBP2 / RFU, SNHG1 /// SNORD22 /// SNORD25 /// SNORD26 /// SNORD27 /// SNORD28 /// SNORD29 /// SNORD31 / Fold change vs veh, SNHG1 /// SNORD22 /// SNORD25 /// SNORD26 /// SNORD27 /// SNORD28 /// SNORD29 /// SNORD31 / Fold change (Aza/veh), C12orf56 (ProbeSet 11735607_a_at) / Fold change (ACY-1035/veh), C12orf56 (ProbeSet 11735607_a_at) / Fold change (Aza/veh), FGFR1OP (ProbeSet 11751329_s_at) / Fold change (ACY-1035/veh), FGFR1OP (ProbeSet 11751329_s_at) / Fold change (Aza/veh), VPS36 (ProbeSet 11739960_a_at) / Fold change (ACY-1035/veh), VPS36 (ProbeSet 11739960_a_at) / RFU SYPL1 (11715823_x_at) / Fold change /veh SYPL1 (11715823_x_at) / RFU IGFBP7 (11715501_s_at) / Fold change /veh IGFBP7 (11715501_s_at) / RFU REEP3 (11722064_at) / Fold change /veh REEP3 (11722064_at) / RFU IGLL1 (11728026_x_at) / Fold change /veh IGLL1 (11728026_x_at): dose or concentration left out as unconfirmed
Settings: MV-4-11 cells, 48 hours

Structure (SMILES): Nc1ccc(-c2cccs2)cc1NC(=O)c1ccc2c(c1)cc(C1CC1)n2CCN1CCOCC1 [ACY-1035]
- Fold change /veh HAMP (11756126_x_at): 0.97
